Reference: ChEMBL document CHEMBL1201862, “PubChem BioAssay data set” (2004)
Values belong to the molecule of their own block, whether it stands above or below them. Active and inactive are the calls of the source.

How the values were obtained:
[1] = target: T1, Heat shock factor protein 1 (Mus musculus, UniProt P38532); assay: enhancement of HSF1-driven luciferase signal – cell-based, NIH3T3, luminescence, dose retest, confirmation (AID 435004); type: functional;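 note: stress induced by proteasome inhibitor MG132 added 30 min after compound; luciferase reporter driven by HSF1 response element in NIH3T3 cells; actives raise luminescence as potentiators of the MG132 stress response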
T1 sequence (P38532 whole entry): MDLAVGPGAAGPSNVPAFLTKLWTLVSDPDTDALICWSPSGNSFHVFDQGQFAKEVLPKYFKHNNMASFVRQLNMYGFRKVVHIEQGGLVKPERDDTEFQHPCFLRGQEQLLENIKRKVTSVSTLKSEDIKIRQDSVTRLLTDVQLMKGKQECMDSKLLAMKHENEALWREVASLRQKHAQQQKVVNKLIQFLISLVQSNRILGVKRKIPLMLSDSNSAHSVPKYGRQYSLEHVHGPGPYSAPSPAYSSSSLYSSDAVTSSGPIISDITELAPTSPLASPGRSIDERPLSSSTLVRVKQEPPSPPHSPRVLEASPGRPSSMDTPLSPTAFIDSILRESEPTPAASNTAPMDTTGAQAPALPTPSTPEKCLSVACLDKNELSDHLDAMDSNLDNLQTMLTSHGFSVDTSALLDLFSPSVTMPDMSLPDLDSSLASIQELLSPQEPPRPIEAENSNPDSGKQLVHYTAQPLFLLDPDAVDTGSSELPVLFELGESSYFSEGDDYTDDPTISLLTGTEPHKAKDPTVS

Streptococcus = assay: GAS UMAA2166 growth inhibition – luminescence, BacTiterGlo, counter-screen for streptokinase expression inhibitor project, dose response (AID 1915); type: functional, organism-based;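 note: potency for reduction of bacterial viability or growth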
[2] = NIH-3T3 fibroblast cytotoxicity, dose response, cytotoxicity control, cell-based, fluorescence, Alamar Blue, secondary assay (AID 2327); type: functional;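 note: NIH-3T3 mouse fibroblasts cultured with fluconazole at 8 µg/mL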
[3] = tested on: Streptococcus sp. 'group A'; assay: Streptococcus pyogenes SK(-)GAS viability under kanamycin – luminescence, BacTiterGlo, confirmation, counter-screen for streptokinase expression inhibitor project, dose response (AID 1900); type: functional, organism-based
[4] = fluconazole-exposed Candida albicans growth modulators – fluorescence, retest, confirmation (AID 2467); type: functional, cell-based
[5] = target: FAD-linked sulfhydryl oxidase ALR (Homo sapiens, UniProt P55789); assay: ALR-catalysed DTT oxidation blockers – biochemical, H2O2 detection, luminescence, cherry-pick, dose response (AID 493248)
Cytochrome P450 2C9 [6] = target: T2, Cytochrome P450 2C9 (Homo sapiens, UniProt P11712)
Cytochrome P450 2C19 = Cytochrome P450 2C19 (Homo sapiens, UniProt P33261); assay: Cytochrome panel assay with activity outcomes. Panel member name: p450-cyp2c19 Compounds with AC50 equal or less than 10 uM are considered active; type: functional
Cytochrome P450 2D6 = Cytochrome P450 2D6 (Homo sapiens, UniProt P10635);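 note: CYP2D6 member of a cytochrome P450 panel assay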
Cytochrome P450 2C9 [7] = target: T2, Cytochrome P450 2C9; remark: listed apart in the source
Cytochrome P450 1A2 = target: T3, Cytochrome P450 1A2 (Homo sapiens, UniProt P05177);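 note: PubChem cytochrome P450 panel assay, CYP1A2 panel member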
T3 sequence (P05177 whole entry): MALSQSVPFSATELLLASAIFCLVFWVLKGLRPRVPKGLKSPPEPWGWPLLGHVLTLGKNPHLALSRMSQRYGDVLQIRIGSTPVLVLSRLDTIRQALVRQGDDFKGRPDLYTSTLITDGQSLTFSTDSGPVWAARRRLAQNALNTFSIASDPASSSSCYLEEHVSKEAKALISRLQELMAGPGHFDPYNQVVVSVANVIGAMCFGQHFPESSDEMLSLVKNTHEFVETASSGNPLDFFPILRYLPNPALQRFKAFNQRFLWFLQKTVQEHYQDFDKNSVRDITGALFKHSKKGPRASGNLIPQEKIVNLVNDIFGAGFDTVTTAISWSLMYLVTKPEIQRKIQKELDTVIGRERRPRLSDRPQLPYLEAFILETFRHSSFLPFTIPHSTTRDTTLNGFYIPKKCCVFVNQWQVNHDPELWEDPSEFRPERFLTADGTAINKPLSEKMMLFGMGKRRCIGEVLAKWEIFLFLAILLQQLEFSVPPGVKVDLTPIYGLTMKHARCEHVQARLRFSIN

Cytochrome P450 3A4 = Cytochrome P450 3A4 (Homo sapiens, UniProt P08684);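 note: CYP3A4 tested as one member of a cytochrome P450 panel screen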
[8] = target: T4, Corticotropin-releasing factor receptor 2/Corticotropin-releasing factor-binding protein (Homo sapiens, UniProt P24387+Q13324); assay: activators of CRF receptor 2 with binding protein – uHTS hits, confirmation (AID 602473); type: functional; conditions: read-out: EC50_Mean
T4 sequence (Q13324 whole entry): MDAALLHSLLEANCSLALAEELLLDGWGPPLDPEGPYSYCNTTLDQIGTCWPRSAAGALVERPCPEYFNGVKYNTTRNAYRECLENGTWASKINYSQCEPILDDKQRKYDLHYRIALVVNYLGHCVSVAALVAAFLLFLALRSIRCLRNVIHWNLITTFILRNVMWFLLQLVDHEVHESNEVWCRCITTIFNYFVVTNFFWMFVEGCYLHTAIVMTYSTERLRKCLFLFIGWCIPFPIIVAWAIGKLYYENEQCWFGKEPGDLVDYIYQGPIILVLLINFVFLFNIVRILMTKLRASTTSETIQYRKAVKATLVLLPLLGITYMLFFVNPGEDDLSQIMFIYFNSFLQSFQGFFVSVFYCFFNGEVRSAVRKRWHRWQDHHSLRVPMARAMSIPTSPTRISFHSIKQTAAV
T4 sequence (P24387 whole entry): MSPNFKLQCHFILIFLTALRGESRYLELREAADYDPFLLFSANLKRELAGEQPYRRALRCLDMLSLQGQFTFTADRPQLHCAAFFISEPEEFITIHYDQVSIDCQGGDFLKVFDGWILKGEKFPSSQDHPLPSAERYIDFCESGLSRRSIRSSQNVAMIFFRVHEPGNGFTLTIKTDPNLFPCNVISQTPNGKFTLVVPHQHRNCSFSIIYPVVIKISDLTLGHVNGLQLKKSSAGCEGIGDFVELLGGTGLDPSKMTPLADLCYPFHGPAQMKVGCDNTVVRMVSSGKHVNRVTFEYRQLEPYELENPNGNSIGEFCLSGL

[9] = NIH3T3 cell viability loss – ATP luminescence, mouse fibroblasts, counter-screen, dose response (AID 2010); type: functional, cell-based;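 note: cells exposed to compound for about 90 hours before reading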
[10] = Trypanosoma cruzi growth suppression in host cells – NIH3T3 host cells, beta-gal luminescence, confirmation (AID 2044); type: functional, cell-based;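 note: intracellular parasites grown in NIH/3T3 mouse fibroblasts as host cells; luminescent beta-galactosidase reporter signal from transgenic T. cruzi replicating inside host cells; inhibitors lower the luminescence signal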

Sequence of FAD-linked sulfhydryl oxidase ALR (P55789 whole entry): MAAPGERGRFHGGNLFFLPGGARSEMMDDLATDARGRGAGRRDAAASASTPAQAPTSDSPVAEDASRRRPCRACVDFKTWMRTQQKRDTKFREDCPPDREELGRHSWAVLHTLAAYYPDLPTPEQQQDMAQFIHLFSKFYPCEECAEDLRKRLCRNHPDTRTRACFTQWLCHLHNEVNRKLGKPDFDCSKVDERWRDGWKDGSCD
Sequence of Cytochrome P450 2C19 (P33261 whole entry): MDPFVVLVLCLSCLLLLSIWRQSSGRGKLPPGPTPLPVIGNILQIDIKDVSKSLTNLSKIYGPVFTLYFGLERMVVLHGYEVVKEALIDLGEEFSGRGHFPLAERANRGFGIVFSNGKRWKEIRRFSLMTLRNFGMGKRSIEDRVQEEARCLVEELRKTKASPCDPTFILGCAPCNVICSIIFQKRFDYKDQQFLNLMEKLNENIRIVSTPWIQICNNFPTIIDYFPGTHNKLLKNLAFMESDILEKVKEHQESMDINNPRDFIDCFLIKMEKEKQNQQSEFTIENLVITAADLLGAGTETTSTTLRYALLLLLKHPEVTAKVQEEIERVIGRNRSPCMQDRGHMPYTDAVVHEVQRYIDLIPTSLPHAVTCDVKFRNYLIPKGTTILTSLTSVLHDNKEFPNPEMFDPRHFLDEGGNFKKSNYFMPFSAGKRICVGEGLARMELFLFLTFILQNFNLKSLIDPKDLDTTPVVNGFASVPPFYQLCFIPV
Sequence of Cytochrome P450 3A4 (P08684 whole entry): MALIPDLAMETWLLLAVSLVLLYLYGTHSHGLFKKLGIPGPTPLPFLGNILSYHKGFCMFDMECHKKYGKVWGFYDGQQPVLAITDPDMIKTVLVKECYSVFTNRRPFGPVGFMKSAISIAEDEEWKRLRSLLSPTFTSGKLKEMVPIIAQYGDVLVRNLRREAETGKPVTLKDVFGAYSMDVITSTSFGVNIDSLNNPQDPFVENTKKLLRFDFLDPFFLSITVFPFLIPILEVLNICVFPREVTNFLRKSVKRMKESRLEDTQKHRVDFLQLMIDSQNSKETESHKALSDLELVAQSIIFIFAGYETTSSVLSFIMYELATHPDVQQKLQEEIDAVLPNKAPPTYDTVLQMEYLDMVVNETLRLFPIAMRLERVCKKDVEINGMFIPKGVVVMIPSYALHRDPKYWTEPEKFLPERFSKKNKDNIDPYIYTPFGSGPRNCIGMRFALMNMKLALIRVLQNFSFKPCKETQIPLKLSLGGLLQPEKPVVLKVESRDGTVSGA
T2 sequence (P11712 whole entry): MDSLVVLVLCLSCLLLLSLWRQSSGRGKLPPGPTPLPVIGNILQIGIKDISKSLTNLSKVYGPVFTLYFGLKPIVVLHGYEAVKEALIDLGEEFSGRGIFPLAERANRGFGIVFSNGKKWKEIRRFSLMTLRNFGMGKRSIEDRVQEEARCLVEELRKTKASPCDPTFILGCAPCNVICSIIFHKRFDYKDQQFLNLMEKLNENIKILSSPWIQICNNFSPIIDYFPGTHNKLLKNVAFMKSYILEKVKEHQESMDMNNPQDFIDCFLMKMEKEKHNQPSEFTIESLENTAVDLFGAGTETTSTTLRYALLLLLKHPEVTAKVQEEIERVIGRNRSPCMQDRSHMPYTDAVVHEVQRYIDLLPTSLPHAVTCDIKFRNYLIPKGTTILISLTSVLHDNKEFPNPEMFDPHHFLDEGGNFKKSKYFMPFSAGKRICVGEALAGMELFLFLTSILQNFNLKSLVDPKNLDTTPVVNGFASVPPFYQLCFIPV
Sequence of Cytochrome P450 2D6 (P10635 whole entry): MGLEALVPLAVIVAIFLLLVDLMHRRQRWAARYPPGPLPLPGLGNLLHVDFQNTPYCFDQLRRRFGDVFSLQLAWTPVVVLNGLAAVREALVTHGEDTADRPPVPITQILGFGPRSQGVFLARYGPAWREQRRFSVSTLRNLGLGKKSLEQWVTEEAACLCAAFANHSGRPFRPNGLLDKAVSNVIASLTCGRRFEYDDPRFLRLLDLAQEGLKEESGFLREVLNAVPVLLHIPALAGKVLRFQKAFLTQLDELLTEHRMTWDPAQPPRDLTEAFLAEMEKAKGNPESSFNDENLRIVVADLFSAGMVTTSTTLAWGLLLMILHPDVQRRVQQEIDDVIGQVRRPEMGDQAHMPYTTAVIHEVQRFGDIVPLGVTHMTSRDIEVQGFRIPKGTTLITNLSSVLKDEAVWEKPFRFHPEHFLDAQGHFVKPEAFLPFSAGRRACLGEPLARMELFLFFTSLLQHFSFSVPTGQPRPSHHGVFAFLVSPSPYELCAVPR

EC50 [1]: > 260 µM (inactive)
SMILES: Cc1ccc(S(=O)(=O)NC2c3cccc4cccc(c34)C2Sc2nncn2C)cc1 (centres undefined)

SMILES: CCc1ccc(OCC(=O)NNC(=S)NC(=O)C2CCCCC2)c(Br)c1
EC50 (Streptococcus): 3.91 µM (active) | EC50 [2]: > 150 µM (inactive) | EC50 [3]: < 0.06 µM (active) | EC50 [4]: 2.33 µM (active)

AC50 [5]: 28.5 µM (active)
SMILES: Cc1nn(Cc2ccc(Cl)cc2)c(C)c1N

AC50 (Cytochrome P450 2C9 [6]): inconclusive
SMILES: Cc1noc(C)c1C(=O)N1CCC2(CCN(Cc3ccccc3)CC2)CC1

AC50 (Cytochrome P450 2C9 [6]): inconclusive
SMILES: COc1cccc(Nc2ncc3nc(-c4cn(C)c5ccccc45)c(=O)n(C[C@H]4CCCO4)c3n2)c1

AC50 (Cytochrome P450 2C9 [6]): inconclusive | AC50 (Cytochrome P450 2C19): inconclusive
SMILES: CN(C)c1nc(C#N)nc(N2CCOCC2)n1

SMILES: O=C(/C=C/c1ccccc1)NC(=S)Nc1ccc(N2CCOCC2)c(Cl)c1
EC50 [2]: > 160 µM (inactive) | EC50 [4]: 5.76 µM (active)

AC50 (Cytochrome P450 2D6): 15.8 µM (inconclusive) | AC50 (Cytochrome P450 2C9 [7]): 31.6 µM (inconclusive)
SMILES: O=C(c1cc(C(F)(F)F)cc(C(F)(F)F)c1)N1CCC2(CCCN(c3ccncc3)C2)CC1

AC50 (Cytochrome P450 1A2): 28.2 µM (inconclusive) | AC50 (Cytochrome P450 2C9 [7]): 5.01 µM (inconclusive)
SMILES: CCC(C)NC(=O)c1c(C)cc(=O)oc1C (centres undefined)

AC50 (Cytochrome P450 3A4): 10 µM (inconclusive) | AC50 (Cytochrome P450 2C19; read-out: AC50): 39.8 µM (inconclusive) | AC50 (Cytochrome P450 2C9 [7]): 20 µM (inconclusive)
SMILES: CO[C@H]1OC[C@@]2(C)[C@@H]3C4=C(CN2C(=O)OC(C)(C)C)[C@H](C)[C@H](CO)[C@H](CO)[C@H]4CC[C@H]13

AC50 [5]: 0.325 µM (active)
SMILES: Oc1[nH]c2ccccc2c1C1=NCCCC1

AC50 (Cytochrome P450 3A4): 28.2 µM (inconclusive) | AC50 (Cytochrome P450 2C9 [6]): inconclusive
SMILES: Cc1ccccc1C(=O)NC(=S)NCC(=O)c1ccccc1

SMILES: COCc1nnc(NC(=O)c2ccc(S(=O)(=O)N3CCCc4ccccc43)cc2)o1
EC50 [2]: > 150 µM (inconclusive) | EC50 [4]: 2.96 µM (active)

AC50 (Cytochrome P450 3A4): 3.16 µM (inconclusive) | AC50 (Cytochrome P450 2C19): inconclusive | AC50 (Cytochrome P450 2C9 [7]): 2.24 µM (inconclusive)
SMILES: CCOC(=O)CSc1nc(O)c2cnn(-c3ccc(C)cc3)c2n1

EC50 [1]: > 260 µM (inactive)
SMILES: COC(=O)CCC(=O)C1=C(N)CC(C)(C)CC1=O

AC50 [5]: 3.7 µM (active)
SMILES: COc1ccc(OC)c(NC(=O)CCN2CCN(c3ccccc3)CC2)c1

AC50 (Cytochrome P450 2C9 [6]): inconclusive
SMILES: CCOc1ccccc1NC(=O)CN1CCC(NC(=O)c2ccccc2)CC1

SMILES: COC(=O)c1c(C)[nH]c(O)c1/C=N/c1ccc(C(C)C)cc1
AC50 (Cytochrome P450 3A4): 28.2 µM (inconclusive) | EC50 [8]: > 53 µM (inactive) | AC50 (Cytochrome P450 2C19; read-out: AC50): 25.1 µM (inconclusive) | EC50 [9]: > 60 µM (inconclusive) | AC50 (Cytochrome P450 2C9 [7]): 28.2 µM (inconclusive) | EC50 [10]: 4.19 µM (active)

EC50 [1]: > 260 µM (inactive)
SMILES: CNC(=O)N(O)C1N(/N=C/c2c(F)cccc2Cl)C(=S)SC1(C)C (centres undefined)

EC50 [1]: 168 µM (active)
SMILES: CCOC(=O)C(=O)/C(C#N)=C/Nc1ccccc1

AC50 (Cytochrome P450 2C9 [6]): inconclusive
SMILES: Cc1nc2ccccn2c1C(=O)N/N=C/c1ccccc1[N+](=O)[O-]

AC50 [5]: 1.71 µM (active)
SMILES: O=C(O)c1ccc(/N=c2\oc3cc(O)ccc3cc2C(=O)NCc2ccccc2)cc1

AC50 (Cytochrome P450 1A2): 12.6 µM (inconclusive) | AC50 (Cytochrome P450 2C9 [6]): inconclusive | AC50 (Cytochrome P450 2C19; read-out: AC50): 28.2 µM (inconclusive)
SMILES: C/C(CC(=O)Nc1cc(Cl)ccc1Cl)=N\NC(N)=S

AC50 [5]: 2.25 µM (active)
SMILES: COc1cc(/C=N/NC(=O)c2ccc(CSc3nncn3C)cc2)cc(OC)c1O
